According to ChEMBL document CHEMBL4219265, “Piperlongumine derivative, CG-06, inhibits STAT3 activity by direct binding to STAT3 and regulating the reactive oxygen species in DU145 prostate carcinoma cells” (Bioorg Med Chem Lett, 2018):

Legend:
DU-145 [1] = assay: Effect on total STAT3 protein level in human DU145 cells assessed as ratio of STAT3 protein level to GAPDH protein level at 3 uM after 24 hrs by Western blot analysis (reference value: 1); type: ADME, cell-based; conditions: du-145, 24 h
DU-145 [2] = assay: Effect on total STAT3 protein level in human DU145 cells assessed as ratio of STAT3 protein level to GAPDH protein level at 7 uM after 24 hrs by Western blot analysis (reference value: 1); type: ADME, cell-based; conditions: du-145, 24 h
[3] = target: T1, Signal transducer and activator of transcription 3 (Homo sapiens, UniProt P40763); assay: Inhibition of STAT3 phosphorylation at Tyr705 residues in human DU145 cells by Western blot analysis; type: cell-based
T1 sequence (P40763 whole entry): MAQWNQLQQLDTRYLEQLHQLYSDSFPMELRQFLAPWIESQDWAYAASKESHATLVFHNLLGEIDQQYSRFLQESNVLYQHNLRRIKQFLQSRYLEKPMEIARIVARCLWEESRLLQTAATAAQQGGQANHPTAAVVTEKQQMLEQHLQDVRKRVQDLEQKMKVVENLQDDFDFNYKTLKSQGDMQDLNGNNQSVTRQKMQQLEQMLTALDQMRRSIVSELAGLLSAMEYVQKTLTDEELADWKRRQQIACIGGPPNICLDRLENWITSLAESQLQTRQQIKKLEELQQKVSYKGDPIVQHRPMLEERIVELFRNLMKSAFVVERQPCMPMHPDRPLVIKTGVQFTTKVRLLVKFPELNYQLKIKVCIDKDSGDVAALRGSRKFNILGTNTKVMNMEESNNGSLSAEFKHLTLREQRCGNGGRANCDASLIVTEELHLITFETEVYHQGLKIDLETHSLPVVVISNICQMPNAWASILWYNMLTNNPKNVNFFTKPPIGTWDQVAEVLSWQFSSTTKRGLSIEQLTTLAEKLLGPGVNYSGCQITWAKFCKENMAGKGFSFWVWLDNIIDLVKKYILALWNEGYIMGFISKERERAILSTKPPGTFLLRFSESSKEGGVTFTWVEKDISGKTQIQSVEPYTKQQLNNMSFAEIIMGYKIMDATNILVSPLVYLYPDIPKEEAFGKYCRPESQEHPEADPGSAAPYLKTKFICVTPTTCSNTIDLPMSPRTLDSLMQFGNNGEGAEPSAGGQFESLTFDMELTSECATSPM

[4] = target: T1, Signal transducer and activator of transcription 3; assay: Inhibition of STAT3 phosphorylation at Tyr705 residues in human DU145 cells assessed as ratio of phosphorylated STAT3 protein level to GAPDH protein level at 7 uM after 24 hrs by Western blot analysis (reference value: 1); type: cell-based
DU-145 [5] = assay: Growth inhibition of human DU145 cells after 48 hrs by WST-1 assay; type: functional; conditions: DU-145, 48 h
[6] = target: T1, Signal transducer and activator of transcription 3; assay: Inhibition of STAT3 phosphorylation at Tyr705 residues in human DU145 cells assessed as ratio of phosphorylated STAT3 protein level to GAPDH protein level at 3 uM after 24 hrs by Western blot analysis (reference value: 1); type: cell-based
LNCaP [7] = assay: Growth inhibition of human LNCAP cells after 48 hrs by WST-1 assay; type: functional
DU-145 [8] = assay: Effect on total STAT3 protein level in human DU145 cells assessed as ratio of STAT3 protein level to GAPDH protein level at 1 uM after 24 hrs by Western blot analysis (reference value: 1); type: ADME, cell-based; conditions: du-145, 24 h
DU-145 [9] = assay: Effect on total STAT3 protein level in human DU145 cells assessed as ratio of STAT3 protein level to GAPDH protein level at 5 uM after 24 hrs by Western blot analysis (reference value: 1); type: ADME, cell-based; conditions: du-145, 24 h
LNCaP [10] = assay: Growth inhibition of human LNCAP cells after 24 to 48 hrs by WST-1 assay; type: functional
[11] = target: T1, Signal transducer and activator of transcription 3; assay: Inhibition of STAT3 phosphorylation at Tyr705 residues in human DU145 cells assessed as ratio of phosphorylated STAT3 protein level to GAPDH protein level at 1 uM after 24 hrs by Western blot analysis (reference value: 1); type: cell-based
PC-3 [12] = assay: Growth inhibition of human PC3 cells after 24 to 48 hrs by WST-1 assay; type: functional
DU-145 [13] = assay: Effect on total STAT3 protein level in human DU145 cells assessed as ratio of STAT3 protein level to GAPDH protein level at 10 uM after 24 hrs by Western blot analysis (reference value: 1); type: ADME, cell-based; conditions: du-145, 24 h
PC-3 [14] = assay: Growth inhibition of human PC3 cells after 48 hrs by WST-1 assay; type: functional; conditions: PC-3, 48 h
[15] = target: T1, Signal transducer and activator of transcription 3; assay: Inhibition of STAT3 phosphorylation at Tyr705 residues in human DU145 cells assessed as ratio of phosphorylated STAT3 protein level to GAPDH protein level at 10 uM after 24 hrs by Western blot analysis (reference value: 1); type: cell-based
[16] = target: T1, Signal transducer and activator of transcription 3; assay: Inhibition of STAT3 phosphorylation at Tyr705 residues in human DU145 cells assessed as ratio of phosphorylated STAT3 protein level to GAPDH protein level at 5 uM after 24 hrs by Western blot analysis (reference value: 1); type: cell-based
[17] = target: T1, Signal transducer and activator of transcription 3; assay: Inhibition of STAT3 phosphorylation at Tyr705 residues in human DU145 cells after 24 hrs by Western blot analysis; type: cell-based
DU-145 [18] = assay: Effect on total STAT3 protein level in human DU145 cells assessed as ratio of ERK1/2 protein level to GAPDH protein level at 2 mM after 1 hr by Western blot analysis (reference value: 1); type: ADME, cell-based; conditions: du-145, 1 h, 2000 µM
[19] = target: T1, Signal transducer and activator of transcription 3; assay: Inhibition of STAT3 phosphorylation in human DU145 cells assessed as ratio of phosphorylated STAT3 protein level to GAPDH protein level at […] after 1 hr by Western blot analysis (reference value: 1); type: cell-based

Row | SMILES | GI50 (DU-145 [5]) | GI50 (LNCaP [7]) | GI50 (PC-3 [14]) | also measured
1 | COc1cc(/C=C/C(=O)N2CCC=CC2=O)cc(OC)c1OC [PIPLARTINE] | 7.1 µM | 9.2 µM | > 10 µM | Ratio (DU-145 [1]): 1.1; Ratio (DU-145 [2]): 1; inhibition [3]: Dose-dependent effect; Ratio [4]: 0.5; Ratio [6]: 0.7; Ratio (DU-145 [8]): 1; Ratio (DU-145 [9]): 1; GI50 (LNCaP [10]): > 10 µM; Ratio [11]: 0.8; GI50 (PC-3 [12]): > 10 µM; Ratio (DU-145 [13]): 0.9; Ratio [15]: 0.3; Ratio [16]: 0.7; IC50 [17]: 7 µM
2 | C#CCN(C(=O)/C=C/c1cc(OC)c(OC)c(OC)c1)C(=O)C(=C)C | 2.3 µM | > 10 µM | 7.3 µM | –
3 | CC(=O)N[C@@H](CS)C(=O)O [ACETYLCYSTEINE] | – | – | – | Ratio (DU-145 [18]): 0.8; Ratio [19]: 1
4 | C=C(C)C(=O)N(Cc1cccc(Br)c1)C(=O)/C=C/c1cc(OC)c(OC)c(OC)c1 | 5.7 µM | 10 µM | > 10 µM | –
5 | C=C(C)C(=O)NC(=O)/C=C/c1cc(OC)c(OC)c(OC)c1 | 8.6 µM | 10 µM | 8.2 µM | –
6 | C=C(C)C(=O)N(C)C(=O)/C=C/c1cc(OC)c(OC)c(OC)c1 | 5.6 µM | > 10 µM | > 10 µM | –
7 | C=C(C)C(=O)N(Cc1ccccc1C)C(=O)/C=C/c1cc(OC)c(OC)c(OC)c1 | 4.2 µM | 10 µM | > 10 µM | –
